Source: the supplement of paper PMC10627819

Experiments:
Experiment in all cases: fitness (endpoint OD595 vs no drug) (fraction); higher = more growth
[1] = tested on: S. aureus Newman
Procedure, shortened: (§1)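 Background-subtracted growth curves were the basis for fitness, taken as the optical density at entry into stationary phase over the robust mean of no-drug control wells. A cap of 1 was applied. The curves came from OD595 readings every 30 min for 14 h at 37 °C, in 384-well plates seeded at OD595 0.01 with 30 µl, or 55 µl for S. pneumoniae.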

[2] = tested on: S. pneumoniae D39V
Procedure, shortened: as §1

[3] = tested on: B. subtilis 168
Procedure, shortened: as §1

[4] = tested on: S. aureus DSM 20231
Procedure, shortened: as §1

CCC[C@@H]1C[C@@H](C(=O)N[C@@H]([C@H]2O[C@H](SC)[C@H](O)[C@@H](O)[C@H]2O)[C@H](C)Cl)N(C)C1 [Clindamycin] + CC1=C(C(=O)O)N2C(=O)[C@@H](NC(=O)[C@H](N)c3ccccc3)[C@H]2SC1 [Cephalexin]
Settings | fitness
[1], first compound 0.0312 µg/mL, partner 0.5 µg/mL | 0.795
[1], first compound 0.0312 µg/mL, partner 1 µg/mL | 0.82
[2], first compound 0.0125 µg/mL, partner 1 µg/mL | 0.733
[2], first compound 0.0125 µg/mL, partner 2 µg/mL | 0.453
[2], first compound 0.0125 µg/mL, partner 4 µg/mL | 0.0549
[2], first compound 0.025 µg/mL, partner 1 µg/mL | 0.519
[2], first compound 0.025 µg/mL, partner 2 µg/mL | 0.294
[2], first compound 0.025 µg/mL, partner 4 µg/mL | 0.0703
[2], first compound 0.05 µg/mL, partner 1 µg/mL | 0.179
[2], first compound 0.05 µg/mL, partner 2 µg/mL | 0.114
[2], first compound 0.05 µg/mL, partner 4 µg/mL | 0.0475
[3], first compound 0.0625 µg/mL, partner 0.125 µg/mL | 0.556
[3], first compound 0.0625 µg/mL, partner 0.25 µg/mL | 0.465
[3], first compound 0.0625 µg/mL, partner 0.5 µg/mL | 0.482
[3], first compound 0.125 µg/mL, partner 0.125 µg/mL | 0.376
[3], first compound 0.125 µg/mL, partner 0.25 µg/mL | 0.344
[3], first compound 0.125 µg/mL, partner 0.5 µg/mL | 0.348
[3], first compound 0.25 µg/mL, partner 0.125 µg/mL | 0.351
[3], first compound 0.25 µg/mL, partner 0.25 µg/mL | 0.335
[3], first compound 0.25 µg/mL, partner 0.5 µg/mL | 0.34

fitness, one replicate
Settings | first compound 0.0039 µg/mL | first compound 0.0078 µg/mL | first compound 0.015 µg/mL | first compound 0.0156 µg/mL | first compound 0.03 µg/mL | first compound 0.06 µg/mL
[2], partner 0.125 µg/mL | – | – | 0.898 | – | 0.751 | 0.642
[2], partner 0.25 µg/mL | – | – | 0.87 | – | 0.799 | 0.667
[2], partner 0.5 µg/mL | – | – | 0.899 | – | 0.836 | 0.645
[3], partner 0.25 µg/mL | ≥ 1 | 0.863 | – | 0.839 | – | –
[3], partner 0.5 µg/mL | 0.984 | 0.844 | – | 0.868 | – | –
[3], partner 1 µg/mL | 0.96 | 0.886 | – | 0.883 | – | –

COc1cc(Cc2cnc(N)nc2N)cc(OC)c1OC [Trimethoprim] + Cn1nnc(-c2ccc(-c3ccc(N4C[C@H](CO)OC4=O)cc3F)cn2)n1 [Tedizolid]
[4], first compound 0.125 µg/mL, one replicate
Settings | fitness
partner 0.0625 µg/mL | 0.846
partner 0.125 µg/mL | 0.575
partner 0.25 µg/mL | 0.289

fitness, [4]
Settings | first compound 0.25 µg/mL | first compound 0.5 µg/mL | first compound 1 µg/mL
partner 0.0625 µg/mL | 0.623 | – | 0.0355
partner 0.125 µg/mL | 0.689 | 0.519 | 0.0418
partner 0.25 µg/mL | 0.502 | 0.39 | 0.192

CCCCCCCCCC(=O)N[C@H]1[C@H](Oc2c3cc4cc2Oc2ccc(cc2Cl)[C@@H](O[C@@H]2O[C@H](CO)[C@@H](O)[C@H](O)[C@H]2NC(C)=O)[C@@H]2NC(=O)[C@H](NC(=O)[C@@H]4NC(=O)[C@H]4NC(=O)[C@@H](Cc5ccc(c(Cl)c5)O3)NC(=O)[C@H](N)c3ccc(O)c(c3)Oc3cc(O)cc4c3)c3ccc(O)c(c3)-c3c(O[C@H]4O[C@H](CO)[C@@H](O)[C@H](O)[C@@H]4O)cc(O)cc3[C@@H](C(=O)O)NC2=O)O[C@H](CO)[C@@H](O)[C@@H]1O [Teicoplanin] + Cn1nnc(-c2ccc(-c3ccc(N4C[C@H](CO)OC4=O)cc3F)cn2)n1 [Tedizolid]
fitness, main component drawn
Settings | first compound 0.1562 µg/mL | first compound 0.3125 µg/mL | first compound 0.625 µg/mL
[1], partner 0.0625 µg/mL | ≥ 1 | 0.969 | 0.811
[1], partner 0.125 µg/mL | ≥ 1 | 0.97 | 0.779
[1], partner 0.25 µg/mL | – | 0.391 | 0.163
[4], partner 0.0625 µg/mL | 0.808 | 0.89 | 0.949
[4], partner 0.25 µg/mL | 0.066 | 0.0756 | 0.1

fitness, [1], one replicate, main component drawn
Settings | first compound 0.62 µg/mL | first compound 1.24 µg/mL | first compound 2.48 µg/mL
partner 0.0625 µg/mL | 0.883 | 0.789 | 0.474
partner 0.125 µg/mL | 0.853 | 0.812 | 0.627
partner 0.25 µg/mL | 0.447 | 0.402 | 0.361
